Measured values from article PMC10986512 (Microbiology Spectrum, 2024).
Converted amounts (≈) assume the structure as drawn. “And” between values parts separate entries of the source, which are not always exact repeats. Identical values can stand only once. Like-named read-outs stand apart in the source and are kept apart here.

Key:
[1] = test system: VACV; assay: microbe, parasite or virus in culture; type: cell-based, vaccinia virus (Western Reserve strain); settings: for EC50: Orthopoxvirus vaccinia
[2] = test system: MPXV; type: cell-based, Mpox virus (West African clade US2003, clade IIa)
[3] = in vitro
[4] = test system: RPXV; assay: microbe, parasite or virus in culture; type: cell-based; settings: Rabbitpox virus, RAW264.7
[5] = test system: CPXV; assay: microbe, parasite or virus in culture; type: cell-based, cowpox virus (Brighton Red strain); settings: Cowpox virus
[6] = test system: VACV; type: in vivo, BALB/c mice; settings: 21 days
[7] = test system: VACV; design: species or system BALB/c mice; settings: mouse, in vivo
[8] = test system: VACV; design: species or system BALB/c mice; settings: mouse, in vivo; remark: listed apart in the source
[9] = test system: NS5B-mediated replication of hepatitis C virus RNA; settings: cited from earlier work
[10] = in vivo; settings: C57BL/6, mouse
[11] = in vitro; settings: mouse, plasma
[12] = physchem; settings: pH 7.4, aqueous buffer
[13] = rat, in vivo; cited from earlier work
[14] = dog, in vivo; cited from earlier work

O=C(NN1C(=O)[C@@H]2[C@@H]3C=C[C@@H]([C@H]4C[C@@H]34)[C@@H]2C1=O)c1ccc(C(F)(F)F)cc1 [ST-246]
SI [1]: >750 and >666.7
EC50 [1]: 0.001 to 0.01 µM
SI [2]: >2189.8
CC50 [3]: > 30 µM

C[C@@]1(O)[C@H](O)[C@@H](CO)O[C@H]1n1cc(F)c2c(N)ncnc21 [UMM-766, 7-fluoro-7-deaza-2′-C-methyladenosine]
EC50 and EC90 in MRC5 cells relative to RAW cells [1]: 3- to 15 fold
EC50 [1]: < 1 µM
EC50 [4]: < 1 µM
EC50 [5]: 2.17 µM
EC50 ([5]; MRC5): 8.09 µM
survival [6]: 66.7% and 80% and 100%
animals that met euthanasia criteria or died [7]: two
maximum percentage weight change [7]: −30.5% and −29.3% and −24.4%
median survival [7]: 8 days
IHC labeling in nasal cavity/turbinates [8]: minimal or absent labeling
hemorrhage in the olfactory bulb [8]: completely absent
meningeal necrosis in the olfactory bulb [8]: absent in two 3-mg/kg animals and two 10-mg/kg animals
necrosis of the olfactory epithelium (nasal cavity, H&E) [8]: two animals having minimal necrosis and two with moderate necrosis
severity of IHC labeling in nasal cavity/turbinates [8]: markedly reduced
severity/degree of IHC labeling in the lung [8]: mostly mild
IHC labeling in nasal cavity/turbinates ([8]; 10 mg/kg): labeling was absent
effect on NS5B-mediated replication of hepatitis C virus RNA [9]: decrease NS5B-mediated replication of hepatitis C virus RNA by chain termination
bioavailability [10]: 48.8%
clearance [10]: 154 mL/min/kg
half-life [10]: 2.9 h
fraction unbound [11]: 0.844
solubility [12]: 3300 µg/mL (≈ 11.1 mM)
highest tolerable dose [13]: 10 mg/kg
highest tolerable dose [14]: 10 mg/kg
